# According to US20210284952A1, “METHODS OF APPLYING ACETATE TOXICITY AND INDUCING ACETATE UPTAKE IN MICROALGAE CULTURES” (HELIAE DEVELOPMENT LLC, priority 2016, published 2021):
# Structures can show the parent of a compound that is named as a salt. Where two headings read alike, the source gives them in different places.
# Experiments:
# [1] = system: Aurantiochytrium sp. HS399; conditions: pH 6±0.2 auxostat, dissolved oxygen
# Protocol: An experiment was performed to determine the effect on respiration in microalgae Aurantiochytrium sp. HS399 in response to acetate toxicity (i.e., the increase of the internal cell acetate concentration). […] Data presented corresponds to a 4 day old 30 L bubble column bag bioreactor growing in axenic conditions at culture density of 24 g/L, that was incubated at a temperature of 29.5±0.3° C., and aerated at a rate of 10 LPM. The pH probe: E&H, Digital non-glass pH sensor, Tophit CPS471D helped to maintain the pH at 6±0.2 in a pH auxostat mode. The DO was recorder with a Hamilton, EasyFerm Plus Arc 120, P/N: 242091/06 probe. Samples were taken before and after each pulse and analyzed for residual acetate using HPLC. Internal acetate was fluctuations were calculated based on medium residual acetate by integrating the previously presented equation:
# Chlorella sp. HS26 [2] = conditions: pH 6±0.2 auxostat, dissolved oxygen
# Protocol: An experiment was performed to determine the effect on respiration in microalgae Chlorella sp. HS26 in response to acetate toxicity conditions (i.e., the increase of the internal cell acetate concentration). […] Data presented corresponds to a continuous 200 L bubble column culture growing in axenic conditions at culture density of 12 g/L, that was incubated at a temperature of 25 f 0.3° C., and aerated at a rate of 30 LPM. The pH probe: E&H, Digital non-glass pH sensor, Tophit CPS471D helped to maintain the pH at 6±0.2 in a pH auxostat mode. The DO was recorder with a Hamilton, EasyFerm Plus Arc 120, P/N: 242091/06 probe. Samples were taken before and after each pulse and analyzed for residual acetate using HPLC.
# [3] = system: Aurantiochytrium sp. HS399
# From the text: Because the microalgae pH homeostasis will tend to maintain an internal cell pH slightly above neutral (about 7-8) in response to medium acidification, the acetate built up inside the cell may be modeled. The internal acetate concentration of a cell may be calculated from the external culture pH, and the residual acetate concentration in the culture, assuming that the internal pH of the cell and the ionic strength are maintained constant. The pH gradient between the internal cell pH and pH of the culture medium outside the cell may be calculated with the following equation derived from the Hendersen Hassleback equation, from which the internal acetate concentration can be solved: […]
# An experiment was conducted to determine the acetate toxicity of Aurantiochytrium sp. HS399. […] The initial culture medium was supplemented with 30 g/L glycerol and 0.5 or 5 g/L acetate.
# Chlorella sp. HS26 [4] = conditions: pH-auxostat feed
# From the text: Samples were taken daily to measure dry weight and residual acetate concentration of the culture medium.
# total aerobic bacteria = conditions: for Contamination: pH 5.5 with Acetic Acid, pH 7.0 with HCl
# Protocol: (§1) An experiment was performed to determine the effectiveness of applying acetate toxicity to microalgae cultures grown in the presence of a non-acetate organic carbon source, in this case glycerol. Aurantiochytrium sp. HS399 was grown in a 100 L open pond. […] Trace and vitamins stocks were prepared according to Ashford, et al. 2000. Lipids 35, 1377-1386. The ponds were inoculated at 1 v/v using exponentially growing cultures. Aeration was maintained at 0.5 vvm using a porous hose. […] Cytosolic (internal cell) acetate concentration was calculated using the previously described model.
# [5] = system: Aurantiochytrium sp. HS399; conditions: pH 5.5 with Acetic Acid, pH 7.0 with HCl
# Protocol: as §1
# Chlorella sp. HS26 [6] = system: Chlorella sp. HS26
# Protocol: The experiment of Example 11 was repeated with Chlorella sp. HS26 to evaluate the impact of pH induced acetate toxicity on microalgal lipid and protein accumulation. The two treatments of pH 6.5 and pH 7.5 were set up in outdoor raceway ponds utilizing a pH auxostat with a set point at the designated pH values. The microalgae were cultured for 8 days. Duplicate cultures of each treatment were performed in the experiment. […] The cultures were inoculated at a density of 1 g/L, cultured at a temperature of 25° C., and received natural sunlight.
# [7] = system: Aurantiochytrium sp. HS399; remark: listed apart in the source
# Chlorella sp. HS26 [8] = system: Chlorella sp. HS26; remark: listed apart in the source
# Protocol: An experiment was conducted with Chlorella sp. HS26 to evaluate the impact of pH induced acetate toxicity on microalgal growth during a batch culturing process. The two treatments of pH 6.5 and pH 7.5 were set up in outdoor raceway ponds utilizing a pH auxostat with a set point at the designated pH values and cultured for seven days. Duplicate cultures of each treatment were performed in the experiment. […] The cultures were inoculated at a density of 1 g/L, cultured at a temperature of 25° C., and received natural sunlight.
# [9] = system: Aurantiochytrium sp. HS399; conditions: nitrogen source
# Protocol: An experiment was conducted to determine the effect of different nitrogen sources on the internal cell acetate concentration for cultures of Aurantiochytrium sp. HS399 cultures. […] 7H2O (2.5), KCl (0.5), CaCl2 (0.1), KH2PO4 (0.5) vitamins (1 ml/L) and trace metal (5 ml/L). […] The ponds were inoculated at 1 v/v using exponentially growing cultures. Aeration was maintained at 0.5 vvm using a porous hose. Equimolar nitrogen concentrations were added top each pond reactor. […] Culture dry weights (filtration) and residual acetate (HPLC) in the culture medium were analyzed daily. Cytosolic (internal cell) acetate concentration was calculated using the previously described model.
structure (smiles),measurement,setting,value
"CC(=O)O [Acetic Acid, acetic acid]",Aerobic bacteria count,"Aerobic bacteria; pH set point 5.5, day 0.0",1.1E+04 CFU/mL
same,Aerobic bacteria count,"Aerobic bacteria; pH set point 5.5, day 0.9",2.1E+04 CFU/mL
same,Aerobic bacteria count,"Aerobic bacteria; pH set point 5.5, day 1.9",2.2E+04 CFU/mL
same,respiration rate in response to acetic acid toxicity,[1],increases respiration rate
same,respiration rate in response to acetic acid toxicity,Chlorella sp. HS26 [2],increases its respiration rate
same,growth,[3]; 53 g/L internal acetate concentration,tolerated
same,growth,[3]; 153 g/l internal acetate concentration,inhibited
same,growth,[3]; 329 g/L internal acetate concentration,did not proliferate
same,Cell Dry Weight,"[3]; pH 4.5, day 0",0.3 g/L
same,Cell Dry Weight,"[3]; pH 4.5, day 1",1.8 g/L
same,Cell Dry Weight,"[3]; pH 4.5, day 2",4.5 g/L
same,Cell Dry Weight,"[3]; pH 4.5, day 3",6.4 g/L
same,Cell Dry Weight,"[3]; pH 4.5, day 4",7.8 g/L
same,Cell Dry Weight,"[3]; pH 4.5, day 5",8.4 g/L
same,Cell Dry Weight,"[3]; pH 4.5, day 6",9.3 g/L
same,Cell Dry Weight,"[3]; pH 5.0, day 0",0.3 g/L
same,Cell Dry Weight,"[3]; pH 5.0, day 1",2.1 g/L
same,Cell Dry Weight,"[3]; pH 5.0, day 2",5.6 g/L
same,Cell Dry Weight,"[3]; pH 5.0, day 3",8.1 g/L
same,Cell Dry Weight,"[3]; pH 5.0, day 4",9.9 g/L
same,Cell Dry Weight,"[3]; pH 5.0, day 5",10.6 g/L
same,Cell Dry Weight,"[3]; pH 5.0, day 6",11.4 g/L
same,Cell Dry Weight,"[3]; pH 5.5, day 0",0.3 g/L
same,Cell Dry Weight,"[3]; pH 5.5, day 1",1.9 g/L
same,Cell Dry Weight,"[3]; pH 5.5, day 2",5.5 g/L
same,Cell Dry Weight,"[3]; pH 5.5, day 3",8.5 g/L
same,Cell Dry Weight,"[3]; pH 5.5, day 4",10.8 g/L
same,Cell Dry Weight,"[3]; pH 5.5, day 5",11.4 g/L
same,Cell Dry Weight,"[3]; pH 5.5, day 6",12.0 g/L
same,Cell Dry Weight,"[3]; pH 7.0, day 0",0.3 g/L
same,Cell Dry Weight,"[3]; pH 7.0, day 1",2.7 g/L
same,Cell Dry Weight,"[3]; pH 7.0, day 2",7.1 g/L
same,Cell Dry Weight,"[3]; pH 7.0, day 3",9.8 g/L
same,Cell Dry Weight,"[3]; pH 7.0, day 4",12.0 g/L
same,Cell Dry Weight,"[3]; pH 7.0, day 5",12.7 g/L
same,Cell Dry Weight,"[3]; pH 7.0, day 6",12.7 g/L
same,Cell Dry Weight,Chlorella sp. HS26 [4]; day 0,0.3 g/L
same,Cell Dry Weight,Chlorella sp. HS26 [4]; day 1,0.8 g/L
same,Cell Dry Weight,Chlorella sp. HS26 [4]; day 2,2.7 g/L
same,Cell Dry Weight,Chlorella sp. HS26 [4]; day 3,3.7 g/L
same,Cell Dry Weight,Chlorella sp. HS26 [4]; day 4,4.7 g/L
same,Cell Dry Weight,Chlorella sp. HS26 [4]; day 5,5.3 g/L
same,Cell Dry Weight,Chlorella sp. HS26 [4]; day 6,5.3 g/L
same,Contamination,total aerobic bacteria; day 0,5.5E+04 CFU/mL
same,Contamination,total aerobic bacteria; day 1,4.8E+05 CFU/mL
same,Contamination,total aerobic bacteria; day 2,5.7E+07 CFU/mL
same,Contamination,total aerobic bacteria; day 3,4.0E+10 CFU/mL
same,Contamination,total aerobic bacteria; day 4,4.6E+12 CFU/mL
same,Contamination,total aerobic bacteria; day 5,8.0E+14 CFU/mL
same,decrease of aerobic bacteria counts versus other treatment,"total aerobic bacteria; throughout the batch, acetate toxicity conditions (pH 5.5)",≥ 3 log
same,Cell Dry Weight,[5]; day 0,0.0 g/L
same,Cell Dry Weight,[5]; day 1,1.1 g/L
same,Cell Dry Weight,[5]; day 2,3.5 g/L
same,Cell Dry Weight,[5]; day 3,6.2 g/L
same,Cell Dry Weight,[5]; day 4,7.7 g/L
same,Cell Dry Weight,[5]; day 5,9.7 g/L
same,Ash,"Chlorella sp. HS26 [6]; pH 6.5, day 0",26 6 % DW
same,Total Carbohydrates,"Chlorella sp. HS26 [6]; pH 6.5, day 0",28.51 % DW
same,Total Lipids,"Chlorella sp. HS26 [6]; pH 6.5, day 0",9.82 % DW
same,Total Protein,"Chlorella sp. HS26 [6]; pH 6.5, day 0",35.07 % DW
same,Ash,"Chlorella sp. HS26 [6]; pH 6.5, day 8",3.26 % DW
same,Total Carbohydrates,"Chlorella sp. HS26 [6]; pH 6.5, day 8",32.13 % DW
same,Total Lipids,"Chlorella sp. HS26 [6]; pH 6.5, day 8",29.34 % DW
same,Total Protein,"Chlorella sp. HS26 [6]; pH 6.5, day 8",35.28 % DW
same,Ash,"Chlorella sp. HS26 [6]; pH 7.5, day 0",26 6 % DW
same,Total Carbohydrates,"Chlorella sp. HS26 [6]; pH 7.5, day 0",28.51 % DW
same,Total Lipids,"Chlorella sp. HS26 [6]; pH 7.5, day 0",9.82 % DW
same,Total Protein,"Chlorella sp. HS26 [6]; pH 7.5, day 0",35.07 % DW
same,Ash,"Chlorella sp. HS26 [6]; pH 7.5, day 8",3.05 % DW
same,Total Carbohydrates,"Chlorella sp. HS26 [6]; pH 7.5, day 8",33.62 % DW
same,Total Lipids,"Chlorella sp. HS26 [6]; pH 7.5, day 8",23.66 % DW
same,Total Protein,"Chlorella sp. HS26 [6]; pH 7.5, day 8",39.69 % DW
same,growth inhibited,[7]; internal acetate concentration 53 g/L,not
same,growth inhibited,[7]; internal acetate concentration 153 g/L,inhibited
same,Cell Dry Weights,"[7]; pH 4.5, day 0",0.4 g/L
same,Cell Dry Weights,"[7]; pH 4.5, day 1",0.5 g/L
same,Cell Dry Weights,"[7]; pH 4.5, day 2",0.3 g/L
same,Cell Dry Weights,"[7]; pH 4.5, day 3",0.2 g/L
same,Cell Dry Weights,"[7]; pH 4.5, day 4",0.3 g/L
same,Cell Dry Weights,"[7]; pH 4.5, day 5",0.0 g/L
same,Cell Dry Weights,"[7]; pH 5.0, day 0",0.4 g/L
same,Cell Dry Weights,"[7]; pH 5.0, day 1",2.3 g/L
same,Cell Dry Weights,"[7]; pH 5.0, day 2",5.0 g/L
same,Cell Dry Weights,"[7]; pH 5.0, day 3",7.1 g/L
same,Cell Dry Weights,"[7]; pH 5.0, day 4",8.9 g/L
same,Cell Dry Weights,"[7]; pH 5.0, day 5",10.0 g/L
same,Cell Dry Weights,"[7]; pH 5.5, day 0",0.4 g/L
same,Cell Dry Weights,"[7]; pH 5.5, day 1",2.7 g/L
same,Cell Dry Weights,"[7]; pH 5.5, day 2",5.6 g/L
same,Cell Dry Weights,"[7]; pH 5.5, day 3",8.0 g/L
same,Cell Dry Weights,"[7]; pH 5.5, day 4",10.2 g/L
same,Cell Dry Weights,"[7]; pH 5.5, day 5",11.6 g/L
same,Cell Dry Weights,"[7]; pH 7.0, day 0",0.4 g/L
same,Cell Dry Weights,"[7]; pH 7.0, day 1",1.5 g/L
same,Cell Dry Weights,"[7]; pH 7.0, day 2",2.9 g/L
same,Cell Dry Weights,"[7]; pH 7.0, day 3",4.1 g/L
same,Cell Dry Weights,"[7]; pH 7.0, day 4",5.4 g/L
same,Cell Dry Weights,"[7]; pH 7.0, day 5",6.3 g/L
same,average three-day productivity,Chlorella sp. HS26 [8]; pH 6.5 cultures,1.14 g/L/day
same,average three-day productivity,Chlorella sp. HS26 [8]; pH 7.5 cultures,0.76 g/L/day
"N[C@@H](CCC(=O)O)C(=O)[O-].[Na+] [MSG, monosodium glutamate]",Cell Dry Weight,[9]; day 0,0.2 g/L
same,Cell Dry Weight,[9]; day 1,3.5 g/L
same,Cell Dry Weight,[9]; day 2,6.8 g/L
same,Cell Dry Weight,[9]; day 3,8.1 g/L
same,Cell Dry Weight,[9]; day 4,9.7 g/L
same,Cell Dry Weight,[9]; day 5,10.2 g/L
"Cl [HCl, hydrochloric acid]",Contamination,total aerobic bacteria; day 0,1.9E+05 CFU/mL
same,Contamination,total aerobic bacteria; day 1,2.9E+10 CFU/mL
same,Contamination,total aerobic bacteria; day 2,1.3E+16 CFU/mL
same,Contamination,total aerobic bacteria; day 3,2.1E+18 CFU/mL
same,Contamination,total aerobic bacteria; day 4,1.4E+17 CFU/mL
same,Contamination,total aerobic bacteria; day 5,3.4E+21 CFU/mL
same,Cell Dry Weight,[5]; day 0,0.1 g/L
same,Cell Dry Weight,[5]; day 1,1.6 g/L
same,Cell Dry Weight,[5]; day 2,4.3 g/L
same,Cell Dry Weight,[5]; day 3,5.5 g/L
same,Cell Dry Weight,[5]; day 4,6.5 g/L
same,Cell Dry Weight,[5]; day 5,8.1 g/L
"N [NH3, ammonia]",Cell Dry Weight,[9]; day 0,0.2 g/L
same,Cell Dry Weight,[9]; day 1,1.9 g/L
same,Cell Dry Weight,[9]; day 2,7.4 g/L
same,Cell Dry Weight,[9]; day 3,7.8 g/L
same,Cell Dry Weight,[9]; day 4,9.9 g/L
same,Cell Dry Weight,[9]; day 5,10.3 g/L
